Reference: patent publication US8796285B2, “Pyrazolo [1,5-a]-pyrimidones derivatives and pharmaceutical compositions and uses thereof” (Hebei Medical University, priority 2009, dated 2014)
Like-named read-outs stand apart in the source and are kept apart here.

Experiments:
KCNQ2/3 = biological target: T1, KCNQ2/3 (Homo sapiens, UniProt O43525+O43526); assay: High throughput atomic absorption Rb+ efflux testing, KCNQ2/3; assay type: cell-based; conditions: Rb+ efflux by atomic absorption
T1 construct: expressed in transfected cells

male mice [1] = assay: The maximum electric shock experiment; assay type: in vivo; conditions: Mus musculus, corneal electrode 26 mA 0.4 second, forced feeding 10, 25, 50 mg/kg, read-out: ED50 anticonvulsant effect
Text: “The maximum electric shock” experiment: The experiment uses electrical method to measure non-specific CNS-induced seizures.
Pharmaceutical composition used: the compound number 21 for the testing group, phenyloin for positive control group.
Experimental method: Apply corneal electrode in male mice of each group, apply 26 mA square wave current for 0.4 second, and forced feeding the pharmaceutical composition after inducing convulsion which is characterized by hindlimb tonic extension (Wlaz et al., Epilepsy Research 1998, 30, 219-229). Dosages for the testing group are: 10 mg/kg (body weight) per administration, 25 mg/kg (body weight) per administration, and 50 mg/kg (body weight) per administration respectively. For control group, dosage is 25 mg/kg (body weight) per administration.

KCNQ2/Q3 channel = KCNQ2/Q3 channel (Homo sapiens, UniProt O43525+O43526); assay: Patch-clamp electrophysiology testing, CHO cell of KCNQ2/Q3 channel; assay type: cell-based; conditions: clamping voltage -80 mV, depolarized to -40 mV, FIG. 5a
Text: (2) Testing method: Culture of ovary cell of Chinese hamster (CHO, Chinese Hamster Overy): steadily transfer the CHO cell culture of KCNQ2/Q3 channel into a composition containing 10% fetal bovine serum, 100 U/ml penicillin and DMEM culture solution of streptomycin, and allow digestion passage of trypsin. Spread the cell on a 12 mm round-shaped coverslip and culture on a 24-well cell culture plate.
Record membrane current using patch-clamp technique: The patch-clamp amplifier is HEKA-EPC10. The electrode solution uses amphotericin B (final concentration of 0.1˜0.2 mg/ml) for perforated patch clamp recording. After polishing the microelectrodes, inject the electrode solution and control the to 2˜4MΩ. The electrode solution used for recording CHO cell are (mM): KCl 160, HEPES 5, MgCl2 3, CaCl2 1, EGTA 2, with pH adjusted to 7.4 with KOH; Extracellular electrode composition are (mM): NaCl 160, KCl 2.5, HEPES 10, glucose 8, MgCl2 1, CaCl2 5. After the cell membrane and microelectrodes form a high resistance seal, clamp at −80 mV, wait 5-10 min and record the readings according to different activation procedures.

[2] = biological target: KCNQ4 potassium ion channel (Homo sapiens, UniProt P56696); assay: High throughput atomic absorption Rb+ efflux testing, CHO cell of KCNQ4 channel; assay type: cell-based; conditions: for EC50: CHO cell of KCNQ4 channel
Text: Atomic absorption Rb^+ efflux testing is a fast and safe selection method for high throughput potassium channel moderator, and is characterized in that the activity of the ion channel and the control effect of the opener are directly reflected. Rb and K have similar atomic size, and potassium ion channel is permeable to Rb^+. By testing concentration of the Rb^+ efflux, a status of the potassium channel, which is an open status or a close status, can be determined. Rb has specific absorption at 780 nm, and Rb^+ concentration can be determined by atomic absorption spectroscopy. Accordingly, analysis method of atomic absorption spectroscopy can be used to select the opener/inhibitor of potassium channel through high throughput of Rb^+ efflux.
Stable cell transfer of CHO cell of KCNQ4 channel at log phase and inoculate in 96-well culture plate at a density of 2×10^4 unit/well. Each concentration has a triplicate-hole setting, and a control setting with solvent of corresponding concentration. Allow growth against the well-wall overnight, then discard the culture medium, add 200 μl loading buffer which contains RbCl, and culture in 5% CO2 at 37° C. for 3 hours. Then remove the loading buffer and wash with wash buffer for 3 times. Screen for the KCNQ opener, dilute testing compound with depolarization buffer, add 200 μl of the above solvent into the cell and allow reaction for 10 minutes. Incubate for 10 minutes, then carefully draw 200 μl supernatant to another 96-well culture plate, use ICR8000 atomic absorption spectrometry to determine the Rb^+ atomic absorption at 780 nm. Based on the equation Fsupern=(Rb_supern/cpd/Rb_supern/d)×100, calculate the corresponding rate of efflux.

rat = assay: Amygdala kindling experiment; assay type: in vivo; conditions: vs pre-administration, p<0.01 vs control group
Text: This experiment is used to measure the disease progress, when further stimulation is applied, the seizure level of the animal in this model will be increased as in the situation of normal animal.
Pharmaceutical composition used: suspended solution of sodium carboxymethyl cellulose containing the compound number 21 for the testing group, suspended solution of sodium carboxymethyl cellulose for the positive control group, with concentration equal to the suspended solution of the testing group.
Testing method: perform surgery to implant tri-polar electrode into dorsolateral amygdale of rat. After surgery, allow the animal to recover, then administer testing compound or pharmaceutical solvent agent of different dosages to rat of different groups. The animal is treated with electrical stimulation at a value which is +25 μA of the initial discharge threshold on a daily basis for 3-5 weeks, and record each seizure incidence in which the level of seizure, the duration of the seizure, and electrical duration after discharge are recorded (Racine. Electroencephalography and Clinical Neurophysiology 1972, 32, 281-294). Dosage level is the same as that of exemplary embodiment 11.

male mice [3] = assay: Pilocarpine-induced seizures experiment; assay type: in vivo; conditions: Mus musculus, ip, pilocarpine 250 mg/kg i.p., compound by intraperitoneal injection 1, 5, 10 mg/kg, read-out: ED50 anti-epilepsy effect
Description: Pilocarpine-induced seizure is, in general, difficult to treat by using the existing anti-epileptic drug, so it belongs to “drug-resistance epilepsy” model.
Pharmaceutical composition used: the compound number 24 for the testing group, phenyloin for positive control group.
Experimental method: Inject 250 mg/kg pilocarpine into the male mice of each group by intraperitoneal injection, induce pilocarpine-induced seizure, observe walking abnormality caused by seizures activities in 30 minutes (Starr et al, Pharmacology Biochemistry and Behavior 1993, 45, 321-325). Apply intraperitoneal injection. Dosages for the testing group are: 1 mg/kg (body weight) per administration, 5 mg/kg (body weight) per administration, and 10 mg/kg (body weight) per administration respectively. For control group, dosage is 50 mg/kg (body weight) per administration.

| EC50 (KCNQ2/3) [nM] | EC50 ([2]; Rb+ efflux by atomic absorption, read-out: KCNQ4) [nM] | activating effect on the CHO cell of the KCNQ4 potassium ion channel ([2]; Rb+ efflux at 0.03, 0.1, 0.6, 1, 3 and 10 μM, FIG. 4) | EC50 ([2]; Rb+ efflux, 0.03-10 μM, FIG. 4, read-out: EC50) [nM] | Compound | ED50 (male mice [1]) [mg/kg] | activation of KCNQ2/3 channel current (KCNQ2/Q3 channel) | seizure level (rat) | time period after discharge process of amygdala (rat) | ED50 (male mice [3]) [mg/kg] |
| --- | --- | --- | --- | --- | --- | --- | --- | --- | --- |
| 3610 ± 6020 | 23900 ± 430 | – | – | O=c1cc(CCl)[nH]c2c(-c3ccccc3)c(C(F)(F)F)nn12 [Compound 21, 5-chloromethyl-3-phenyl-2-trifluoromethylpyrazolo[1,5-a]pyrimidin-7(4H)-one] | 12.2 ± 0.08 | can activate the KCNQ2/3 channel current significantly | increased in the seizure level | shorten time period after discharge process of amygdale | – |
| 78 ± 20 | – | dose-dependent activating effect | 210 ± 80 | O=c1cc(-c2cc(F)c(Cl)nc2Cl)[nH]c2c(-c3ccccc3)c(C(F)(F)F)nn12 [Compound 24] | – | – | – | – | 5.1 ± 0.05 |
